Source: patent US20260217697A1, “COMPOUNDS COMPRISING HETEROARYL RINGS AND COMPOSITIONS AND METHODS THEREOF” (lonGen Therapeutics Co., Ltd., priority 2022, published 2026)

Biological target: T1, hTRPV3 (Homo sapiens, UniProt Q8NET8)
T1 construct: The commercially available plasmid with the full-length cDNA of hTRPV3 (791 aa) (NM_001258205.2); host or cells: HEK293T
T1 sequence (Q8NET8 1-791 isoform Q8NET8-2): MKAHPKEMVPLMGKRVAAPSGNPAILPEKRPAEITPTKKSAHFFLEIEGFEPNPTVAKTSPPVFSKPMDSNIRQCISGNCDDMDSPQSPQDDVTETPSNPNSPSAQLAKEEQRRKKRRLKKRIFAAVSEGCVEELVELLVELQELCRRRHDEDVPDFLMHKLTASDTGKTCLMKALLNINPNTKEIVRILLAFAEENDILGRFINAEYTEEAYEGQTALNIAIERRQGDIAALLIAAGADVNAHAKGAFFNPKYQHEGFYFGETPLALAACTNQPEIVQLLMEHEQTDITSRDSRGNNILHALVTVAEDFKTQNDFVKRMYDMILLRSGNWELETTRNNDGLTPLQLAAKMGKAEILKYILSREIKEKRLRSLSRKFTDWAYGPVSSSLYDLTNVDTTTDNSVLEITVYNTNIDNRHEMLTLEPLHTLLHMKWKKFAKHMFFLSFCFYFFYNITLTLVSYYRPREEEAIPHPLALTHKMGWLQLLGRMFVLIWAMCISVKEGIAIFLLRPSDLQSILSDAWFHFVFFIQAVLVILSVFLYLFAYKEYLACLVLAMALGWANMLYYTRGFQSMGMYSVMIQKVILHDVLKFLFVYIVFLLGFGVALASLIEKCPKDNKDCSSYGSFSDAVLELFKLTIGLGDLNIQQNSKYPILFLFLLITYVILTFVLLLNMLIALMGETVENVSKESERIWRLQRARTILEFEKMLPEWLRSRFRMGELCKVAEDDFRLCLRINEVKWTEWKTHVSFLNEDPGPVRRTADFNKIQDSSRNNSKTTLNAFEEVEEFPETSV
Test: Whole-cell patch-clamp recording of hTRPV3 current in transfected HEK293T cells (2-APB induced)
Format: cell-based
Conditions: current induced by 300 μM 2-APB, compounds tested up to 10 μM, room temperature
Experimental: Various technologies can be utilized to assess TRPV3 activation in accordance with the present disclosure. For example, in some embodiments, compounds are assessed in in vitro patch clamp experiments. Certain useful procedures are described herein as examples.
In some embodiments, whole-cell patch-clamp recordings were used to detect the current through hTRPV3 channels in the HEK293T cell line transfected with hTRPV3 cDNA and evaluate the exact blocking effect of compounds on hTRPV3. In some embodiments, a perfusion system was adopted to control the extracellular solution, including the addition of the agonist and different antagonists.
HEK293T cells were cultured in a Dulbecco's modified Eagle's medium containing 10% fetal bovine serum (Thermo Scientific) and 1% penicillin/streptomycin (Thermo Scientific) at 37° C. with 5% CO2. The commercially available plasmid with the full-length cDNA of hTRPV3 (791 aa) (NM_001258205.2) was purchased from OriGene Technologies. The transfection of hTRPV3 plasmids was conducted using Lipofectamine™ 3000 following the manufacturer's instructions (Invitrogen).
Whole-cell patch-clamp experiments were performed 18 h post-transfection, using a MultiClamp 700B amplifier driven by pClamp 11 software (Molecular Devices). In order to achieve good single-cell physical separation, HEK293T cells with hTRPV3 expression were digested and then re-plated at low density on glass coverslips. Electrodes were pulled from borosilicate glass with a P-97 micropipette puller (Sutter Instruments) and those with resistances of 3-5 MΩ are used for experiments. In some embodiments, an Ag—AgCl wire was used as a reference electrode and signals are filtered using a 2.9 kHz low-pass Bessel filter. Membrane potential was held at 0 mV. For recording of agonist-induced activation and inhibition by different test compounds, currents were elicited by a protocol consisting of a 400-ms step to +80 mV, followed by a 400-ms step to −80 mV at 2-s intervals. both pipette and bath solutions contained 130 mM NaCl, 0.3 mM EDTA, and 3 mM HEPES (buffered to pH 7.4 with NaOH). All recordings were made at room temperature.
All patch-clamp recordings were analyzed using the Clampfit software and GraphPad Prism 6.0 software. Specifically, data are analyzed by calculating the degree of current amplitude after the test compound addition compared with the unblocked agonist-induced current amplitude. The resulting blocking percentage at each concentration was used to make a concentration-response analysis and fitted to the Hill equation: blocking percentage=minimum blocking percentage+ (maximum blocking percentage-minimum blocking percentage)/(1+10^(Hill slope* […])). The minimum blocking percentage is 0% and maximum blocking percentage is 100%, while the Hill slope and the IC50 were determined as the curve fitting routine. Compounds of interest were tested against hTRPV3 at concentrations up to 10 μM, and certain data was used to estimate IC50 as described herein.

Row | Compound | IC50
1 | CCOC(=O)C1CC2(C1)Oc1cc(C(F)(F)F)ccc1-c1nc(NC(=O)c3c(OC)ncnc3OC)sc12 (stereo not shown) [compound 133, ethyl 2-(4,6-dimethoxypyrimidine-5-carboxamido)-7-(trifluoromethyl)spiro[chromeno[4,3-d]thiazole-4,1′-cyclobutane]-3′-carboxylate] | < 100 nM
2 | C=CCc1ncnc(OC)c1C(=O)Nc1nc2c(s1)C(CC)(CC)Oc1cc(C(F)(F)F)ccc1-2 [compound 119, 4-allyl-N-(4,4-diethyl-7-(trifluoromethyl)-4H-chromeno[4,3-d]thiazol-2-yl)-6-methoxypyrimidine-5-carboxamide] | 1000 to 10000 nM
3 | COc1ncnc(OC)c1C(=O)Nc1nc2c(s1)C(C)(C)N(C)c1cc(C(F)(F)F)ccc1-2 [compound 87, 4,6-dimethoxy-N-(4,4,5-trimethyl-7-(trifluoromethyl)-4,5-dihydrothiazolo[5,4-c]quinolin-2-yl)pyrimidine-5-carboxamide] | 100 to 1000 nM
4 | COc1ncnc(OC)c1C(=O)Nc1nc2c(s1)C1(CN(CC(=O)O)C1)Oc1cc(C(F)(F)F)ccc1-2 [compound 165] | ≥ 10000 nM
5 | COc1ncnc(OC)c1C(=O)Nc1nc2c(s1)C1(CN(C(C)C)C1)Oc1cc(Br)ccc1-2 [compound 146, N-(7′-bromo-1-isopropylspiro[azetidine-3,4′-chromeno[4,3-d]thiazol]-2′-yl)-4,6-dimethoxypyrimidine-5-carboxamide] | < 100 nM
6 | CCOC(=O)[C@H]1CC[C@@]2(CC1)Oc1cc(C(C)C)ccc1-c1nc(NC(=O)c3c(OC)ncnc3OC)sc12 [compound 130] | 1000 to 10000 nM
7 | COc1ncnc(OC)c1C(=O)Nc1nc2c(s1)C1(CCCC(C)(C)C1)Oc1cc(C(F)(F)F)ccc1-2 (stereo not shown) [compound 35, N-(3′,3′-dimethyl-7-(trifluoromethyl)spiro[chromeno[4,3-d]thiazole-4,1′-cyclohexan]-2-yl)-4,6-dimethoxypyrimidine-5-carboxamide] | 100 to 1000 nM
8 | COc1ncnc(OC)c1C(=O)Nc1nc2c(s1)C1(CCC(C(N)=O)CC1)Oc1cc(C(F)(F)F)ccc1-2 (stereo not shown) [compound 102, 2-(4,6-dimethoxypyrimidine-5-carboxamido)-7-(trifluoromethyl)spiro[chromeno[4,3-d]thiazole-4,1′-cyclohexane]-4′-carboxamide] | ≥ 10000 nM
9 | CCC1(CC)Oc2cc(C(F)(F)F)ccc2-c2nc(NC(=O)c3c(OC)ncnc3OCCOC)sc21 [compound 70, N-(4,4-diethyl-7-(trifluoromethyl)-4H-chromeno[4,3-d]thiazol-2-yl)-4-methoxy-6-(2-methoxyethoxy)pyrimidine-5-carboxamide] | 100 to 1000 nM
10 | COc1ncnc(OC)c1C(=O)Nc1nc2c(s1)C1(CCC(C(=O)O)CC1)Oc1cc(C(F)(F)F)ccc1-2 (stereo not shown) [compound 101, 2-(4,6-dimethoxypyrimidine-5-carboxamido)-7-(trifluoromethyl)spiro[chromeno[4,3-d]thiazole-4,1′-cyclohexane]-4′-carboxylic acid] | ≥ 10000 nM
11 | COc1ccc2c(c1)-c1nc(NC(=O)c3c(OC)ncnc3OC)sc1CO2 [compound 17, 4,6-dimethoxy-N-(8-methoxy-4H-chromeno[4,3-d]thiazol-2-yl)pyrimidine-5-carboxamide] | ≥ 10000 nM
12 | CCC1(CC)Oc2cc(C(F)(F)F)ccc2-c2nc(NC(=O)c3c(C)ncnc3C)sc21 [compound 52, N-(4,4-diethyl-7-(trifluoromethyl)-4H-chromeno[4,3-d]thiazol-2-yl)-4,6-dimethylpyrimidine-5-carboxamide] | 1000 to 10000 nM
13 | COc1ncnc(OC)c1C(=O)NC1=NC2c3ccc(C(F)(F)F)cc3OC3(CCC3)C2S1 (stereo not shown) [compound 19, 4,6-dimethoxy-N-(7-(trifluoromethyl)-3a,9b-dihydrospiro[chromeno[4,3-d]thiazole-4,1′-cyclobutan]-2-yl)pyrimidine-5-carboxamide] | 100 to 1000 nM
14 | COc1ncnc(OC)c1C(=O)Nc1nc2c(s1)C1(CCN(C3CC3)CC1)Oc1cc(C(F)(F)F)ccc1-2 [compound 154] | 100 to 1000 nM
15 | COc1ncnc(OC)c1C(=O)Nc1nc2c(s1)C1(CCN(C)CC1)Oc1cc(C(F)(F)F)ccc1-2 [compound 46, 4,6-dimethoxy-N-(1′-methyl-7-(trifluoromethyl)spiro[chromeno[4,3-d]thiazole-4,4′-piperidin]-2-yl)pyrimidine-5-carboxamide] | 1000 to 10000 nM
16 | [2H]C([2H])([2H])Oc1ncnc(OC([2H])([2H])[2H])c1C(=O)Nc1nc2c(s1)C(CC)(CC)Oc1cc(C(F)(F)F)ccc1-2 [compound 97, N-(4,4-diethyl-7-(trifluoromethyl)-4H-chromeno[4,3-d]thiazol-2-yl)-4,6-bis(methoxy-d3)pyrimidine-5-carboxamide] | 100 to 1000 nM
17 | COc1ncnc(OC)c1C(=O)Nc1nc2c(ccc3cc(C#N)ccc32)s1 [compound 71, N-(7-cyanonaphtho[1,2-d]thiazol-2-yl)-4,6-dimethoxypyrimidine-5-carboxamide] | ≥ 10000 nM
18 | COc1ncnc(OC)c1C(=O)Nc1nc2c([se]1)C1(CN(C(=O)OC(C)(C)C)C1)Oc1cc(C(F)(F)F)ccc1-2 [compound 168, tert-butyl 2′-(4,6-dimethoxypyrimidine-5-carboxamido)-7′-(trifluoromethyl)spiro[azetidine-3,4′-chromeno[4,3-d][1,3]selenazole]-1-carboxylate] | 100 to 1000 nM
19 | CCC1(CC)Oc2cc(C(F)(F)F)ccc2-c2nc(NC(=O)c3c(OC)nc(O)nc3OC)sc21 [compound 79] | ≥ 10000 nM
20 | CCC1(CC)Oc2cc(Br)ccc2-c2nc(NC(=O)c3c(OC)ncnc3OC)sc21 [compound 49, N-(7-bromo-4,4-diethyl-4H-chromeno[4,3-d]thiazol-2-yl)-4,6-dimethoxypyrimidine-5-carboxamide] | 1000 to 10000 nM
21 | COc1ncnc(OC)c1C(=O)Nc1nc2c(s1)CCOc1cc(C(F)(F)F)ccc1-2 [compound 82, 4,6-dimethoxy-N-(8-(trifluoromethyl)-4,5-dihydrobenzo[2,3]oxepino[4,5-d]thiazol-2-yl)pyrimidine-5-carboxamide] | 100 to 1000 nM
22 | C=CCCC1Oc2cc(C(F)(F)F)ccc2-c2nc(NC(=O)c3c(OC)ncnc3OC)sc21 (stereo not shown) [compound 28, N-(4-(but-3-en-1-yl)-7-(trifluoromethyl)-4H-chromeno[4,3-d]thiazol-2-yl)-4,6-dimethoxypyrimidine-5-carboxamide] | 100 to 1000 nM
23 | C=C(C)c1ccc2c(c1)OC(CC)(CC)c1sc(NC(=O)c3c(OC)ncnc3OC)nc1-2 [compound 55, N-(4,4-diethyl-7-(prop-1-en-2-yl)-4H-chromeno[4,3-d]thiazol-2-yl)-4,6-dimethoxypyrimidine-5-carboxamide] | 100 to 1000 nM
24 | COc1ccc2c(c1)OCc1sc(NC(=O)c3c(OC)ncnc3OC)nc1-2 [compound 11, 4,6-dimethoxy-N-(7-methoxy-4H-chromeno[4,3-d]thiazol-2-yl)pyrimidine-5-carboxamide] | ≥ 10000 nM
25 | COc1ncnc(OC)c1C(=O)Nc1nc2c(s1)C(CO)(CO)Oc1cc(C(F)(F)F)ccc1-2 [compound 113, N-(4,4-bis(hydroxymethyl)-7-(trifluoromethyl)-4H-chromeno[4,3-d]thiazol-2-yl)-4,6-dimethoxypyrimidine-5-carboxamide] | 1000 to 10000 nM
